Assay results taken from ChEMBL document CHEMBL5316308, “BET-HDAC Dual Inhibitors for Combinational Treatment of Breast Cancer and Concurrent Candidiasis” (J Med Chem, 2023).
Converted amounts (≈) assume the structure as drawn. The source made the active and inactive calls. The calls are words filed in the database; no cut-off is given here.

Columns and labels:
[1] = test system: Candida albicans; assay: microbe, parasite or virus in culture; format: functional; details: 0304103, time 48 hrs
Description: Synergistic antifungal activity against azole-resistant Candida albicans 0304103 assessed as fungal growth inhibition measured after 48 hrs in presence of FLC by CLSI based micro-dilution broth method

[2] = test system: Candida albicans; assay: microbe, parasite or virus in culture; format: functional; details: 0304103, time 48 hrs; remark: listed apart in the source
Description: Synergistic antifungal activity against azole-resistant Candida albicans 0304103 assessed as fungal growth inhibition measured after 48 hrs by CLSI based micro-dilution broth method

[3] = test system: MDA-MB-231; assay: Antiproliferative activity against human MDA-MB-231 cells assessed as cell growth inhibition incubated for 24 hrs by CCK-8 assay; format: functional, cell-based; details: MDA-MB-231, 24 h
[4] = test system: K562; assay: Antiproliferative activity against human K562 cells assessed as cell growth inhibition incubated for 24 hrs by CCK-8 assay; format: functional, cell-based; details: K562, 24 h
[5] = biological target: Histone deacetylase 1 (Homo sapiens, UniProt Q13547); assay: Inhibition of full-length recombinant human HDAC1 (1 to 482 residues) expressed in baculovirus infected insect cells using Ac-Leu-Gly-Lys(Ac)-AMC as substrate incubated for 30 mins by fluorescence based assay; parameters: species or system Insect cell
Histone deacetylase 1, sequence (Q13547 whole entry, the tested form may be a part): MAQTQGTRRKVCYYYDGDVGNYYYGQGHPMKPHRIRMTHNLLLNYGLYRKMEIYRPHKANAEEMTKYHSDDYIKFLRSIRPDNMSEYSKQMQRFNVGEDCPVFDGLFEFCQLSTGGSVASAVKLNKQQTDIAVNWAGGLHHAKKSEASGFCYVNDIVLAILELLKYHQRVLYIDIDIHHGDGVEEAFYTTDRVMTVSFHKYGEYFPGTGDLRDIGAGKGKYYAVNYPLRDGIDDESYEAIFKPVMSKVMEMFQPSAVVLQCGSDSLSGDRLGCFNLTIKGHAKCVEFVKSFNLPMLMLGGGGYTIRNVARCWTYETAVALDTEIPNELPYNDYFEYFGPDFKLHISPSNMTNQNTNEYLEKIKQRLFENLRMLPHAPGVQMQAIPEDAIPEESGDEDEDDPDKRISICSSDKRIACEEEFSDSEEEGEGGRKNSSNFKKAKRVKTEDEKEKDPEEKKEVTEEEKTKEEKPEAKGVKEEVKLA

[6] = test system: Cryptococcus neoformans; assay: Antifungal activity against Cryptococcus neoformans H99 assessed as fungal growth inhibition measured after 48 hrs by CLSI based micro-dilution broth method; format: functional
[7] = biological target: Bromodomain-containing protein 4 (Homo sapiens, UniProt O60885); assay: Inhibition of recombinant BRD4 (unknown origin) incubated for 120 mins by TR-FRET assay relative to control; parameters: concentration or dose not given beside the values
[8] = test system: HL-60; assay: Antiproliferative activity against human HL-60 cells assessed as cell growth inhibition incubated for 24 hrs by CCK-8 assay; format: functional, cell-based; details: HL-60, 24 h
[9] = test system: Candida albicans; format: functional, 0304103; details: time 48 hrs
Description: Synergistic antifungal activity against azole-resistant Candida albicans 0304103 assessed as fractional inhibitory concentration index measured after 48 hrs in presence of FLC by CLSI based micro-dilution broth method

[10] = test system: HEL; assay: Antiproliferative activity against human HEL cells assessed as cell growth inhibition incubated for 24 hrs by CCK-8 assay; format: functional, cell-based
[11] = test system: Candida albicans; assay: Synergistic antifungal activity against Candida albicans 0304103 infected in ICR mouse assessed as decrease in kidney fungal load at 20 mg/kg, ip for 5 consecutive days; format: functional, organism-based; details: time 5.0 day
[12] = test system: Cryptococcus neoformans; assay: Antifungal activity against Cryptococcus neoformans H99 assessed as fungal growth inhibition measured after 48 hrs in presence of SAHA by CLSI based micro-dilution broth method; format: functional
[13] = test system: Candida albicans; assay: Synergistic antifungal activity against azole-resistant Candida albicans 0304103 assessed as fungal growth inhibition measured after 48 hrs in presence of SAHA by CLSI based micro-dilution broth method; format: functional
[14] = test system: Candida albicans; assay: Synergistic antifungal activity against azole-resistant Candida albicans 0304103 assessed as fungal growth inhibition measured after 48 hrs in presence of FLC and SAHA by CLSI based micro-dilution broth method; format: functional
[15] = test system: MDA-MB-231; assay: Antitumor activity against human MDA-MB-231 cells xenografted in Balb/c nude mouse assessed as tumor growth inhibition at 10 mg/kg, ip qd for 21 consecutive days relative to control; format: functional; details: MDA-MB-231, 480 h, time 20 day, read-out: TGI
[16] = test system: Candida albicans; assay: Synergistic antifungal activity against azole-resistant Candida albicans 0304103 assessed as fractional inhibitory concentration index measured after 48 hrs in presence of FLC and SAHA by CLSI based micro-dilution broth method; format: functional
[17] = test system: MDA-MB-231; assay: Induction of apoptosis in human MDA-MB-231 cells assessed as late apoptotic cells at 5 uM incubated for 48 hrs by Annexin V-FITC/PI staining based flow cytometry relative to control; format: functional
[18] = test system: K562; assay: Antiproliferative activity against human K562 cells assessed as cell growth inhibition incubated for 24 hrs in presence of SAHA by CCK-8 assay; format: functional, cell-based; details: K562, 24 h
[19] = test system: HL-60; assay: Antiproliferative activity against human HL-60 cells assessed as cell growth inhibition incubated for 24 hrs in presence of SAHA by CCK-8 assay; format: functional, cell-based; details: HL-60, 24 h
[20] = test system: HEL; assay: Antiproliferative activity against human HEL cells assessed as cell growth inhibition incubated for 24 hrs in presence of SAHA by CCK-8 assay; format: functional, cell-based
[21] = test system: MDA-MB-231; assay: Antiproliferative activity against human MDA-MB-231 cells assessed as cell growth inhibition incubated for 24 hrs in presence of SAHA by CCK-8 assay; format: functional, cell-based; details: MDA-MB-231, 24 h
[22] = test system: MDA-MB-231; assay: Induction of apoptosis in human MDA-MB-231 cells assessed as late apoptotic cells at 2.5 uM incubated for 48 hrs by Annexin V-FITC/PI staining based flow cytometry relative to control; format: functional
[23] = test system: Candida albicans; assay: Synergistic antifungal activity against azole-resistant Candida albicans 0304103 assessed as fungal growth inhibition at 32 ug/ml measured upto 24 hrs in presence of FLC by absorbance based assay; format: functional, organism-based; details: dose 32.0 µg/ml
[24] = test system: MDA-MB-231; assay: Induction of apoptosis in human MDA-MB-231 cells assessed as late apoptotic cells at 10 uM incubated for 48 hrs by Annexin V-FITC/PI staining based flow cytometry relative to control; format: functional
[25] = test system: Candida albicans; assay: Antifungal activity FLC-resistant Candida albicans 0304103 assessed as hyphal formation at 32 ug/ml incubated for 3 hrs by inverse fluorescent microscopy; format: functional, organism-based; details: dose 32.0 µg/ml
[26] = test system: Candida albicans; assay: Antifungal activity against azole-resistant Candida albicans 0304103 assessed as fungal growth inhibition at 1 to 4 ug/ml measured upto 24 hrs by absorbance based assay; format: functional, organism-based; details: dose 1-4 µg/ml

Row | Structure (SMILES) | MIC80 [1] [µg/mL] | MIC80 [2] [µg/mL] | IC50 [3] [µM] | IC50 [4] [µM] | IC50 [5] [µM] | MIC80 [6] [µg/mL] | inhibition [7] [%] | IC50 [8] [µM] | fractional inhibitory concentration index (FICI) [9] | IC50 [10] [µM] | also measured
1 | COc1cc2c(cc1-c1c(C)noc1C)[nH]c1ncnc(NCCCCCC(=O)NO)c12 | 0.5 (≈ 1.14 µM) | > 64 | > 50 | 17 | 0.203 | 32 (≈ 73 µM) | 64.7 | > 50 | 0.5 | 13 | –
2 | COc1cc2c(cc1-c1c(C)noc1C)[nH]c1nc(C)nc(NCCCCCC(=O)Nc3ccc(C(=O)NO)cc3)c12 | 1 (≈ 1.75 µM) | > 64 | 16 | 18 | 0.086 | 4 (≈ 7 µM) | 79.7 | 6.5 | 0.047 | > 50 | –
3 | COc1cc2c(cc1-c1c(C)noc1C)[nH]c1nc(C)nc(NCc3ccc(C(=O)NO)cc3)c12 | 2 (≈ 4.23 µM) | > 64 | 8.3 | 1.8 | 0.448 | 64 (≈ 135 µM) | 97.5 | 2.4 | 0.062 | 2.7 | –
4 | COc1cc2c(cc1-c1c(C)noc1C)[nH]c1nc(C)nc(Nc3cc(C4CC4)nn3C)c12 | 16 (≈ 36.1 µM) | > 64 | 3.8 | 2.3 | – | 32 (≈ 72.2 µM) | – | 1.5 | 1.2 | 0.6 | Activity [11]: inactive; MIC80 [12]: 64 µg/mL; MIC80 [13]: > 64 µg/mL; MIC80 [14]: 1 µg/mL; inhibition in vivo at 10 mg/kg [15]: 22%; fractional inhibitory concentration index (FICI) [16]: 0.26; Activity [17]: 9.99%; IC50 [18]: 0.00021 µM; IC50 [19]: 1.4 µM; IC50 [20]: 0.4 µM; IC50 [21]: 1.6 µM; Activity [22]: 8.25%; Activity [23]: inactive; Activity [24]: 16.93%
5 | COc1cc2c(cc1-c1c(C)noc1C)[nH]c1ncnc(NCCCCC(=O)NO)c12 | > 64 | > 64 | > 50 | > 50 | > 2 | > 64 | 11.1 | > 50 | >2 | > 50 | –
6 | COc1cc2c(cc1-c1c(C)noc1C)[nH]c1nc(C)nc(Nc3ccc(/C=C/C(=O)NO)cc3)c12 | 0.5 (≈ 1.03 µM) | > 64 | 11 | > 50 | 1.2 | 16 (≈ 33 µM) | 55.2 | > 50 | 0.13 | > 50 | –
7 | COc1cc2c(cc1-c1c(C)noc1C)[nH]c1ncnc(Nc3ccc(/C=C/C(=O)NO)cc3)c12 | 8 (≈ 17 µM) | > 64 | 6.3 | 11 | > 2 | 16 (≈ 34 µM) | 67.5 | > 50 | 0.25 | > 50 | –
8 | COc1cc2c(cc1-c1c(C)noc1C)[nH]c1ncnc(NCCCCCC(=O)Nc3ccc(/C=C/C(=O)NO)cc3)c12 | 1 (≈ 1.71 µM) | > 64 | 14 | 8.1 | 0.252 | 2 (≈ 3.43 µM) | 56.1 | 3.8 | 0.26 | 8.9 | –
9 | COc1cc2c(cc1-c1c(C)noc1C)[nH]c1nc(C)nc(NCCCCCC(=O)Nc3ccc(/C=C/C(=O)NO)cc3)c12 | 1 (≈ 1.67 µM) | > 64 | 16 | 6 | 1.1 | 4 (≈ 6.69 µM) | 58.3 | 3.1 | 0.078 | > 50 | –
10 | COc1cc2c(cc1-c1c(C)noc1C)[nH]c1nc(C)nc(Nc3ccc(C(=O)NO)cc3)c12 | 0.5 (≈ 1.09 µM) | > 64 | 9.3 | > 50 | 0.395 | > 64 | 79.8 | 2.3 | 0.07 | > 50 | –
11 | COc1cc2c(cc1-c1c(C)noc1C)[nH]c1ncnc(NCCCCCCCC(=O)NO)c12 | 2 (≈ 4.29 µM) | > 64 | 3.8 | 8.9 | 0.037 | 2 (≈ 4.29 µM) | 85.8 | > 50 | 0.062 | 15 | –
12 | OC(Cn1cncn1)(Cn1cncn1)c1ccc(F)cc1F | – | – | – | – | – | – | – | – | – | – | Activity [25]: Active; Activity [26]: inactive
13 | COc1cc2c(cc1-c1c(C)noc1C)[nH]c1ncnc(Nc3ccc(C(=O)NO)cc3)c12 | 8 (≈ 18 µM) | 64 (≈ 144 µM) | 19 | > 50 | 0.974 | 64 (≈ 144 µM) | 53.4 | 6.7 | 0.25 | > 50 | –
14 | COc1cc2c(cc1-c1c(C)noc1C)[nH]c1nc(C)nc(NCCCCCCCC(=O)NO)c12 | 4 (≈ 8.32 µM) | > 64 | 7.8 | 3 | 0.2 | 64 (≈ 133 µM) | 86.2 | > 50 | 0.12 | 3.3 | –
15 | COc1cc2c(cc1-c1c(C)noc1C)[nH]c1nc(C)nc(Nc3cccc(C(=O)NO)c3)c12 | > 64 | > 64 | 9.8 | 3.8 | > 2 | > 64 | 14.8 | > 50 | >2 | > 50 | –
16 | O=C(CCCCCCC(=O)Nc1ccccc1)NO [VORINOSTAT] | – | – | – | – | – | – | – | – | – | – | Activity [11]: inactive; Activity [17]: 22.96%; Activity [22]: 16.91%; Activity [24]: 27.19%
17 | COc1cc2c(cc1-c1c(C)noc1C)[nH]c1nc(C)nc(NCCCCCC(=O)NO)c12 | 2 (≈ 4.42 µM) | > 64 | > 50 | 17 | 0.124 | 32 (≈ 70.7 µM) | 90.8 | 7.9 | 0.16 | 7.1 | –
